Data: article PMC11233931, “Remodeling tumor‐associated macrophage for anti‐cancer effects by rational design of irreversible inhibition of mitogen‐activated protein kinase‐activated protein kinase 2” (MedComm, 2024)
Like-named read-outs stand apart in the source and are kept apart here.

How the values were obtained:
p38 [1] = molecular target: T1, p38 (Homo sapiens, UniProt O15264); experiment: Eurofins kinase selectivity profile, p38; type: biochemical; conditions: p38-delta/SAPK4(h), read-out: Inhibition rate (%)
T1 construct: purchased Eurofins (Celle Lévescault)
T1 sequence (O15264 1-365): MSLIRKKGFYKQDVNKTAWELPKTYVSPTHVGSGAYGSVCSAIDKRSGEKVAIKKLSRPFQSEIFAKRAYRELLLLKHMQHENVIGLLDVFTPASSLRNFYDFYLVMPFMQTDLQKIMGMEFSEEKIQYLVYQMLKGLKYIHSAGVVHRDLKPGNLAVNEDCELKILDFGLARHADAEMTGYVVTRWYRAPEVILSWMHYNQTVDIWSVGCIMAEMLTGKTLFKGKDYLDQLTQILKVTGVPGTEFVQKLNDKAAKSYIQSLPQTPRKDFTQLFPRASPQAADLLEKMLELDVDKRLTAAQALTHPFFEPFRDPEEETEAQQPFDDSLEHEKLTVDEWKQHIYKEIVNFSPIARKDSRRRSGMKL
Method: (§1) Subsequently, to ascertain whether the high potency of compound 11 was specific for MK2, an additional 380 human recombinant protein kinases were screened.
(§2) To assess the impact of various compounds on MK2 kinase activity, we utilized the ADP‐Glo Assay Kit (Promega) following the manufacturer's instructions. Luminescence measurements were taken using a SpectraMax Paradigm reader. The inhibition percentage was calculated using the following formula: ((specific signalDMSO control − specific signal inhibitor)/(specific signalDMSO control)) × 100%. The IC50 values were determined employing dose–response curve fitting via Prism (Graph Pad). Additionally, Eurofins company (Celle Lévescault) conducted the analysis on compound 11’s inhibitory activity against 380 other human recombinant kinases at various concentrations.

p38 [2] = molecular target: T2, p38 (Homo sapiens, UniProt P53778); experiment: Eurofins kinase selectivity profile, p38; type: biochemical; conditions: p38-gamma/SAPK3(h), read-out: Inhibition rate (%)
T2 construct: purchased Eurofins (Celle Lévescault)
T2 sequence (P53778 1-367): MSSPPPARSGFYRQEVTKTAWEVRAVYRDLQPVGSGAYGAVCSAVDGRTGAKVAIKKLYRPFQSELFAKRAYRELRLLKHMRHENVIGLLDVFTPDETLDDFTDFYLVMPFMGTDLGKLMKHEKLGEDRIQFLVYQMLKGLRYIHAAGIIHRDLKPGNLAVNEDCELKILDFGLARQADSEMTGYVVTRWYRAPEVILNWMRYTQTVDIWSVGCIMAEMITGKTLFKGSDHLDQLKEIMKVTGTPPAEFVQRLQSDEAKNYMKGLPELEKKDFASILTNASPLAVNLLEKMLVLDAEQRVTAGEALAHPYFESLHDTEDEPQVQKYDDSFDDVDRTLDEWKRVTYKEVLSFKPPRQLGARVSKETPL
Method: as §1, §2

p38 [3] = molecular target: T3, p38 (Homo sapiens, UniProt Q15759); experiment: Eurofins kinase selectivity profile, p38; type: biochemical; conditions: p38-beta/SAPK2b(h), read-out: Inhibition rate (%)
T3 construct: purchased Eurofins (Celle Lévescault)
T3 sequence (Q15759 whole entry): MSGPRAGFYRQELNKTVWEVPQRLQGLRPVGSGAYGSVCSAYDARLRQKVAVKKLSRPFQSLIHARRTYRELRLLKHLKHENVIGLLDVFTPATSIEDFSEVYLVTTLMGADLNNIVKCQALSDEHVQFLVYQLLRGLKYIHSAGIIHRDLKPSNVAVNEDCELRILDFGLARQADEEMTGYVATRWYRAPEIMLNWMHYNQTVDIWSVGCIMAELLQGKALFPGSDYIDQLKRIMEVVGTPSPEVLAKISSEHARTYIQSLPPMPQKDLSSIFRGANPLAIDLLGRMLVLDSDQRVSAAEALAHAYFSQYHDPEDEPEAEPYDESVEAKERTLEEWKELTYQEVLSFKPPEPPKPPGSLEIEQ
Method: as §1, §2

p38 [4] = molecular target: T4, p38 (Homo sapiens, UniProt Q16539); experiment: Eurofins kinase selectivity profile, p38; type: biochemical
T4 construct: purchased Eurofins (Celle Lévescault)
T4 sequence (Q16539 2-360): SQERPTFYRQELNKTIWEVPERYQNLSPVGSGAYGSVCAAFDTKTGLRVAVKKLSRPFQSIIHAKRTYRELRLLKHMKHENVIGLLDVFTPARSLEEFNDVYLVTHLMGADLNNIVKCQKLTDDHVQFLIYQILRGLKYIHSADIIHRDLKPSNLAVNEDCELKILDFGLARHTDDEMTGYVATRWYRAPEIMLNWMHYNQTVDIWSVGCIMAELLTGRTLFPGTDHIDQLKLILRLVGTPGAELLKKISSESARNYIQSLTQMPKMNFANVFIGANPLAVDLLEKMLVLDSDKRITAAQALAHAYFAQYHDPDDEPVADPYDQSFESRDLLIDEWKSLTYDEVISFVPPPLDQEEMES
Method: as §1, §2

p38 [5] = experiment: Eurofins kinase selectivity profile, p38; type: biochemical, human
Method: as §1, §2

[6] = Mouse pharmacokinetics study; type: in vivo; conditions: male, ICR, plasma, mice, ip. 10 mg/kg, mean ± SD
Method: Compound 11 was dissolved in DMSO/Tween 80/PEG400/NaCl (5/5/45/45, v/v/v/v) to a concentration of 5 mg/mL and given to ICR mice (male, 18−22 g, n = 3) by intraperitoneal injection. Blood samples were obtained at intervals of 0.25, 0.5, 1, 2, 4, and 8 h following administration. The sample preparation and the analysis were following the protocol provided in the Supporting Information Methods.
[…] of plasma was mixed with […] of methanol: acetonitrile solvent (1:1, v/v) with internal standard, and the mixture was thoroughly vortexed. After centrifugation for 5 minutes, […] of the supernatant was combined with […] of water for analysis. Samples were analyzed by Xevo TQ-S triple quadrupole mass spectrometer. The ACQUITY UPLC BEH C^18 (1.7 µm, 2.0mm_ 50 mm, Waters, USA) was adopted for the analysis. Gradient elution was employed using a 5 mM ammonium acetate aqueous solution containing 0.1% formic acid, along with acetonitrile containing 0.1% formic acid. Following the analysis of compound concentrations, Phoenix WinNonlin (CERTARA, USA) was utilized to calculate the value of AUClast, AUCINFinf_obs and MRTINFinf_obs from time-concentration curves in each animal. Cmax denotes the peak plasma concentration, while Tmax signifies the time taken to achieve the peak concentration.

[7] = Cell viability assay (CCK-8), CT26; type: cell-based; conditions: mouse, CT26 cells (colorectal carcinoma), CT26, murine colorectal carcinoma, read-out: IC50 (μM) mean ± SD, cytotoxicity
Method: (§3) In cellular experiments, cells are seeded into either 6-well or 96-well plates and incubated overnight, proceeding with treatments as described in the figure legends or methods section. The cell inoculation numbers are outlined as follows: For assays measuring cell viability, between 3,000 to 5,000 cells are seeded per well in 96-well plates. For other cellular assays, the seeding density ranges from 5×10^5 to 1×10^6 cells per well in 6-well plates.
(§4) Cells was plated into 96-well plates and incubated overnight prior to introduction of varying concentrations of compounds or control solvent. Following a 72-hour exposure period, cell viability was determined using a Cell Counting Kit-8 assay (Life-iLab, China). Dose-response curves were fitted using a four-parameter method facilitated by SoftMax Pro, which was subsequently used for the computation of IC50 values.

[8] = Cell viability assay (CCK-8), MIA Paca-2; type: cell-based; conditions: MIA Paca-2 cells (pancreatic carcinoma), MIA Paca-2, human pancreatic carcinoma, read-out: IC50 (μM) mean ± SD, cytotoxicity
Method: as §3, §4

Structure (SMILES): C=CC(=O)Nc1cc(-c2cc(-c3cc4c([nH]3)CCNC4=O)ccn2)ccc1OC(F)(F)F [compound 11]
- inhibition at 0.01 µM (p38 [1]; 10 nM): -3%
- inhibition at 0.1 µM (p38 [1]; 100 nM): -6%
- inhibition at 1 µM (p38 [1]; 1000 nM): 8%
- inhibition at 0.01 µM (p38 [2]; 10 nM): 5%
- inhibition at 0.1 µM (p38 [2]; 100 nM): 2%
- inhibition at 1 µM (p38 [2]; 1000 nM): 20%
- inhibition at 0.01 µM (p38 [3]; 10 nM): -7%
- inhibition at 0.1 µM (p38 [3]; 100 nM): -11%
- inhibition at 1 µM (p38 [3]; 1000 nM): -4%
- IC50 (p38 [4]): > 1000 nM
- inhibition at 1 µM (p38 [4]; 1 µM, read-out: inhibition rate on p38 kinase): < 10%
- inhibition at 0.01 µM (p38 [4]; p38-alpha/SAPK2a(h), 10 nM, read-out: Inhibition rate): 0%
- inhibition at 0.1 µM (p38 [4]; p38-alpha/SAPK2a(h), 100 nM, read-out: Inhibition rate): -3%
- inhibition at 1 µM (p38 [4]; p38-alpha/SAPK2a(h), 1000 nM, read-out: Inhibition rate): -5%
- selectivity for MK2 over p38 (p38 [5]): over 434 fold
- AUC(0-t) [6]: 44.5 ± 21.4 ng·h/mL
- Cmax [6]: 126 ng/mL
- Tmax [6]: 3 min
- half-life [6]: 22.8 min
- AUC ([6]; read-out: AUCinf_obc): 45.2 ± 21.3 ng·h/mL
- MRT inf ([6]; read-out: MRTinf_obs): 98.4 ± 125 min
- IC50 at 72 h [7]: 47.2 ± 2.4 µM
- IC50 at 72 h [8]: 47.8 ± 2.8 µM
